We go through 26 compounds from the CombiSolv-Exp solvation set (Vermeire and Green 2021).

This series in a line: solvent given as SMILES.
The mark [1] stands for this setting: in CCCCCCCCC=CCCCCCCCC(=O)OCC(COC(=O)CCCCCCCC=CCCCCCCCC)OC(=O)CCCCCCCC=CCCCCCCCC

As to `CCCCC(=O)O`, the “solvation free energy, 298 K” value (in O) was -6.13 kcal/mol.
In the case of `O=C(O)Cc1ccc(C(=O)O)cc1`, the “solvation free energy, 298 K” value (in C=CCCCCCCCCCCCCCC) is -10.5 kcal/mol and the “solvation free energy, 298 K” value (in O) is -16.5 kcal/mol.
With `c1ccc2c(c1)[nH]c1ccccc12`, the “solvation free energy, 298 K” value runs as follows: (in CC(=O)N(C)C) -14 kcal/mol; (in CN1CCCC1=O) -14.5 kcal/mol; (in O) -7.18 kcal/mol.
In the case of `C=C(C)CCCC`, the “solvation free energy, 298 K” value is, setting by setting: (in C=CCCCCCCCCCCCCCC) -4.04 kcal/mol; (in O) 1.66 kcal/mol.
Turning to `FC(F)(F)c1ccccc1C(F)(F)F`, the “solvation free energy, 298 K” value (in O) was 1.07 kcal/mol.
Consider `COc1ccc(CCN)cc1`, for which the “solvation free energy, 298 K” value (in C=CCCCCCCC=C) is -9.4 kcal/mol and the “solvation free energy, 298 K” value (in O) was -8.51 kcal/mol.
Regarding `NC(N)=O`, the “solvation free energy, 298 K” value (in O) is -13.6 kcal/mol.
`Cc1cccnc1`: the “solvation free energy, 298 K” value reads like this: (in CC(C)(C)O) -5.83 kcal/mol; (in CC(C)CC(C)(C)C) -4.97 kcal/mol; (in CCCCO) -6.41 kcal/mol; (in CCCO) -6.34 kcal/mol; (in O) -4.8 kcal/mol.
For `CC(=O)C1CC1`, under “in O”, the “solvation free energy, 298 K” value was -4.61 kcal/mol.
With `O=C(O)c1ccccc1Cl`, the “solvation free energy, 298 K” value runs as follows: (in CC(C)=O) -10.4 kcal/mol; (in CN(C)C=O) -11.1 kcal/mol; (in O) -7.53 kcal/mol.
For the compound `CC(Cl)CCl` (stereo unspecified), the “solvation free energy, 298 K” value reads like this: (in CCCCCC) -4.17 kcal/mol; (in CCCCCCCCO) -4.03 kcal/mol; (in ClC(Cl)(Cl)Cl) -4.65 kcal/mol.
On to `O=c1cc(Cl)[nH]c(=O)[nH]1`, for which, for the setting “in O”, the “solvation free energy, 298 K” value was -15.8 kcal/mol.
Regarding `CCCOC`, for the setting “in O”, the “solvation free energy, 298 K” value was -1.66 kcal/mol.
In the case of `CCCCN`, the “solvation free energy, 298 K” value (in C1COCCO1) was -4.48 kcal/mol; the “solvation free energy, 298 K” value (in CCCCCCCC) was -3.44 kcal/mol; the “solvation free energy, 298 K” value (in CCCCCCCCCC) was -3.4 kcal/mol; the “solvation free energy, 298 K” value (in CCCCCCCCCCCCCCCC) was -3.5 kcal/mol; the “solvation free energy, 298 K” value (in CCCCOCCCC) is -3.66 kcal/mol; the “solvation free energy, 298 K” value (in O) was -4.23 kcal/mol.
With `FC(F)Cl`, the “solvation free energy, 298 K” value (in CCCCCCCC(=O)OCC(COC(=O)CCCCCCC)OC(=O)CCCCCCC) is -1.69 kcal/mol and the “solvation free energy, 298 K” value (in CCCCCCCCC) is -1.16 kcal/mol.
In the case of `CC(C)CCCCOC(=O)c1ccccc1C(=O)OCCCCC(C)C`, the “solvation free energy, 298 K” value (in O) was -6.55 kcal/mol.
On to `CC(=O)OCCc1ccccc1`, for which, under “in O”, the “solvation free energy, 298 K” value was -5.5 kcal/mol.
With `O=C(O)c1ccc(CO)cc1`, the “solvation free energy, 298 K” value is -8.43 kcal/mol (in C=CCCCCCCCCCCCCCC) and -13.3 kcal/mol (in O).
Regarding `CCCCCCC=O`, the “solvation free energy, 298 K” value (in O) was -2.67 kcal/mol.
Consider `COc1c(Cl)ccc(Cl)c1C(=O)O`, for which the “solvation free energy, 298 K” value (in O) is -9.86 kcal/mol.
As for `CCCCCCOC(C)=O`, the “solvation free energy, 298 K” value is -5.94 kcal/mol (in CCCCCCCCCCCCCCCC); -6.26 kcal/mol (in CCCCCCCCO); -4.6 kcal/mol (in NC=O); -2.29 kcal/mol (in O); -2.44 kcal/mol (in [2H]O[2H]).
For the compound `CCC(O)C(C)(C)C` (stereo unspecified), the “solvation free energy, 298 K” value is, setting by setting: (in CCCCCCCC) -4.93 kcal/mol; (in CCCCCCCCCC) -4.85 kcal/mol.
Regarding `CCNc1nc(Cl)nc(NC(C)(C)C)n1`, the “solvation free energy, 298 K” value (in O) was -8.66 kcal/mol.
With `Oc1c(Cl)cc(Cl)cc1Cl`, the “solvation free energy, 298 K” value under setting [1] was -8.28 kcal/mol and the “solvation free energy, 298 K” value (in O) was -4.95 kcal/mol.
The like results for `Clc1ccc(C(c2ccccc2Cl)C(Cl)(Cl)Cl)cc1` (stereo unspecified) were, in that order, -13.8 kcal/mol and -5.31 kcal/mol.
In the case of `Oc1ccccc1Cl`, the “solvation free energy, 298 K” value reads like this: (in CC(C)CC(C)(C)C) -5.44 kcal/mol; (in CCCCCC) -5.72 kcal/mol; (in CCCCCCC) -5.71 kcal/mol; (in CCCCCCCC) -5.67 kcal/mol; (in CCCCCCCCCC) -5.63 kcal/mol; (in Cc1ccc(C)cc1) -6.37 kcal/mol. Besides, the “solvation free energy, 298 K” value reads like this: (in Cc1cccc(C)c1) -6.42 kcal/mol; (in Cc1ccccc1C) -6.41 kcal/mol; (in O) -4.56 kcal/mol.
